Source: PMC3776780, “Dual p38/JNK Mitogen Activated Protein Kinase Inhibitors Prevent Ozone-Induced Airway Hyperreactivity in Guinea Pigs” (PLoS ONE, 2013)

Tests used:
Assay in all cases: spectrophotometric coupled-enzyme kinase inhibition assay
Type in all cases: biochemical
FLT3 = FLT3 (Homo sapiens, UniProt P36888); conditions: read-out: Ki or IC50 FLT3
Outline: (§1)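 Activated kinase (10–40 nM) was preincubated with inhibitor in DMSO for 10 min at 30°C in 0.1 M HEPES pH 7.5 with MgCl2, pyruvate kinase/lactate dehydrogenase coupling, NADH and 200 µM–500 µM EGF receptor peptide; ATP at its Km started the reaction. A340 decrease was followed 10 min; rates gave IC50 or competitive Ki.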

ITK = ITK (Homo sapiens, UniProt Q08881); conditions: read-out: Ki or IC50 ITK
Outline: as §1

EphA = conditions: read-out: Ki or IC50 EphA
Outline: as §1

TIE2 = TIE2 (Homo sapiens, UniProt Q02763); conditions: read-out: Ki or IC50 TIE2
Outline: as §1

JAK2 = JAK2 (Homo sapiens, UniProt O60674); conditions: read-out: Ki or IC50 JAK2
Outline: as §1

LCK = LCK (Homo sapiens, UniProt P06239); conditions: read-out: Ki or IC50 LCK
Outline: as §1

COT = COT (Homo sapiens, UniProt P41279); conditions: read-out: Ki or IC50 COT
Outline: as §1

PDK1 = PDK1 (Homo sapiens, UniProt O15530); conditions: read-out: Ki or IC50 PDK1
Outline: as §1

FAK = FAK (Homo sapiens, UniProt Q05397); conditions: read-out: Ki or IC50 FAK
Outline: as §1

Chain of PDK1 (O15530 whole entry): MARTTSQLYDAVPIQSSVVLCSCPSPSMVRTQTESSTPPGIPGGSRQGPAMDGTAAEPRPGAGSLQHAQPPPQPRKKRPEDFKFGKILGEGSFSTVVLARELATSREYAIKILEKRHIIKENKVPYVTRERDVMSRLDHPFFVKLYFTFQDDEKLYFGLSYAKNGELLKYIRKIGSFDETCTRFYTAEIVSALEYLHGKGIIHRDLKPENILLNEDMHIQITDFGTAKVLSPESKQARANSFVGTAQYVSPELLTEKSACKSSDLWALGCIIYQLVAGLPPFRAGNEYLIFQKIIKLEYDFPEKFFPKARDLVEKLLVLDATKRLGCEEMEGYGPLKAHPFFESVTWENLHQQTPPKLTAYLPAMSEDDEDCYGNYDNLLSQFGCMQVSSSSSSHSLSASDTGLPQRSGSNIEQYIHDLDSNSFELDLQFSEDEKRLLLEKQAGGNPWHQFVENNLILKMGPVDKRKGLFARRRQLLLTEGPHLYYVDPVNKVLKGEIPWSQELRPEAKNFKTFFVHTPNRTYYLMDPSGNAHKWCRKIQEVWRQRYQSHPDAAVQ
Chain of JAK2 (O60674 whole entry, species assumed): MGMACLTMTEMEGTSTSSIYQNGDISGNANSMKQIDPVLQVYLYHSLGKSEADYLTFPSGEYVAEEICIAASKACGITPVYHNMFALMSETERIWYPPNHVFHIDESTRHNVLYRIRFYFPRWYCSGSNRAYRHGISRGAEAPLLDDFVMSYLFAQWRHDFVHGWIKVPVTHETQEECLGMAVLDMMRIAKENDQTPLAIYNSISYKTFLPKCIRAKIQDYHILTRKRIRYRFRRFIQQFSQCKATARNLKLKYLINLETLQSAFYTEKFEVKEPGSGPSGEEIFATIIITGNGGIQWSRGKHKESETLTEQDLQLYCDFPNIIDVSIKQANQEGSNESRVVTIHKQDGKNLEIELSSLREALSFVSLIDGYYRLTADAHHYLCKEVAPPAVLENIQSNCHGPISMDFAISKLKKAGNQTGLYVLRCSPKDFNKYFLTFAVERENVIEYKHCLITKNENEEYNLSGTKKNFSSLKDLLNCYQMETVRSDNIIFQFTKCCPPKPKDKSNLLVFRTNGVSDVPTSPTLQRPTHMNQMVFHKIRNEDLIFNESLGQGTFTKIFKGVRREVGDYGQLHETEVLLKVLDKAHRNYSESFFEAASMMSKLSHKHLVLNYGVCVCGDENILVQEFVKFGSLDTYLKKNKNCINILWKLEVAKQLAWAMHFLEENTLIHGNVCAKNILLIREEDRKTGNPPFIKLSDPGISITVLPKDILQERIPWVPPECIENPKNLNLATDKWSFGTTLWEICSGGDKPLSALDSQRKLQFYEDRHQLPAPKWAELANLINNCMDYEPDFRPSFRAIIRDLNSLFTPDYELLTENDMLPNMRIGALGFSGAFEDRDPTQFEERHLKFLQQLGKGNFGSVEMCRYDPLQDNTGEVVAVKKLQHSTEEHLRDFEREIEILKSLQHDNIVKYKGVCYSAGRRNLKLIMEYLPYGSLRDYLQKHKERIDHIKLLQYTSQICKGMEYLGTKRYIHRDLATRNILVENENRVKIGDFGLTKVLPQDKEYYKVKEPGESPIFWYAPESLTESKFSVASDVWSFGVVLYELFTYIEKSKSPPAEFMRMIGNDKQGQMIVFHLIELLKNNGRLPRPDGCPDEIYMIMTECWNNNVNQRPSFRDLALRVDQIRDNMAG
Chain of LCK (P06239 whole entry, species assumed): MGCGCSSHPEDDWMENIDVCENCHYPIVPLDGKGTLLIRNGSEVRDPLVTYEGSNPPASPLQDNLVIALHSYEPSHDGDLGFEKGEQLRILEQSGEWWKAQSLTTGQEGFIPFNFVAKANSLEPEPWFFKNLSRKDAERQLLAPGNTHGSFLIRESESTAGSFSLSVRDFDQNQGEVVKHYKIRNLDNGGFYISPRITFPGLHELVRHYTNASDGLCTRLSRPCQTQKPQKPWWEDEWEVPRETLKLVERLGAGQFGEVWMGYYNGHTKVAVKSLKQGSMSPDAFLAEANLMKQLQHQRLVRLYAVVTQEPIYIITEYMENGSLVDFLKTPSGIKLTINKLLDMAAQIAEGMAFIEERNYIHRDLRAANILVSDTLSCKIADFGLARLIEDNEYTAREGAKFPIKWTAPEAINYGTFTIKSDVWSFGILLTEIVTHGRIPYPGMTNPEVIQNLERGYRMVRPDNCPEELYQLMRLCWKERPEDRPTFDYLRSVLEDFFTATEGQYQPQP
Chain of FLT3 (P36888 27-993, species assumed): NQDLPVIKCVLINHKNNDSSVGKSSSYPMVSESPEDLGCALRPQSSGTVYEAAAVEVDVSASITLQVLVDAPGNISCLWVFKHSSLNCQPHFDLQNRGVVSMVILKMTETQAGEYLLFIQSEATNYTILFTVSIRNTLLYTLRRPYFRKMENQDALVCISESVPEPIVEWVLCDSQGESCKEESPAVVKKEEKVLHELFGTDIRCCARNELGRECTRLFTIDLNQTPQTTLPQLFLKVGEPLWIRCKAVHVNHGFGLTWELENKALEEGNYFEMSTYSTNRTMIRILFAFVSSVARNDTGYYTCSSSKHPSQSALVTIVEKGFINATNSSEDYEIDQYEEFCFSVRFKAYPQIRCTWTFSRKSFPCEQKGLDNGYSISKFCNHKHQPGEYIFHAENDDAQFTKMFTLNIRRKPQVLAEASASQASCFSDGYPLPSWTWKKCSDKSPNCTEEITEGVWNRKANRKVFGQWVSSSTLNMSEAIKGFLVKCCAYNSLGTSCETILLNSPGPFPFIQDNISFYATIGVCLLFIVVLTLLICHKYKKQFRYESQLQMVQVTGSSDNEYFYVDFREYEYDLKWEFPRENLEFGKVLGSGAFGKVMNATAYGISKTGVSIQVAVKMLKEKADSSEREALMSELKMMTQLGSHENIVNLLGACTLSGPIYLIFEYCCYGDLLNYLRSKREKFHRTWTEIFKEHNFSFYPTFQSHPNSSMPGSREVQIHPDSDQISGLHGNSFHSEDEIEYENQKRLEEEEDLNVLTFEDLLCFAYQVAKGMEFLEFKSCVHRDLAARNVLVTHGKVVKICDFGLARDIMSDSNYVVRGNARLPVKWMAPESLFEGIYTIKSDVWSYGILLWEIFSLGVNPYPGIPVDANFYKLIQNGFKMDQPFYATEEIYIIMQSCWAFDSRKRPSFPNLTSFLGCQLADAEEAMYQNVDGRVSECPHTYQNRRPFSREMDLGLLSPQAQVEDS
Chain of TIE2 (Q02763 23-1124, species assumed): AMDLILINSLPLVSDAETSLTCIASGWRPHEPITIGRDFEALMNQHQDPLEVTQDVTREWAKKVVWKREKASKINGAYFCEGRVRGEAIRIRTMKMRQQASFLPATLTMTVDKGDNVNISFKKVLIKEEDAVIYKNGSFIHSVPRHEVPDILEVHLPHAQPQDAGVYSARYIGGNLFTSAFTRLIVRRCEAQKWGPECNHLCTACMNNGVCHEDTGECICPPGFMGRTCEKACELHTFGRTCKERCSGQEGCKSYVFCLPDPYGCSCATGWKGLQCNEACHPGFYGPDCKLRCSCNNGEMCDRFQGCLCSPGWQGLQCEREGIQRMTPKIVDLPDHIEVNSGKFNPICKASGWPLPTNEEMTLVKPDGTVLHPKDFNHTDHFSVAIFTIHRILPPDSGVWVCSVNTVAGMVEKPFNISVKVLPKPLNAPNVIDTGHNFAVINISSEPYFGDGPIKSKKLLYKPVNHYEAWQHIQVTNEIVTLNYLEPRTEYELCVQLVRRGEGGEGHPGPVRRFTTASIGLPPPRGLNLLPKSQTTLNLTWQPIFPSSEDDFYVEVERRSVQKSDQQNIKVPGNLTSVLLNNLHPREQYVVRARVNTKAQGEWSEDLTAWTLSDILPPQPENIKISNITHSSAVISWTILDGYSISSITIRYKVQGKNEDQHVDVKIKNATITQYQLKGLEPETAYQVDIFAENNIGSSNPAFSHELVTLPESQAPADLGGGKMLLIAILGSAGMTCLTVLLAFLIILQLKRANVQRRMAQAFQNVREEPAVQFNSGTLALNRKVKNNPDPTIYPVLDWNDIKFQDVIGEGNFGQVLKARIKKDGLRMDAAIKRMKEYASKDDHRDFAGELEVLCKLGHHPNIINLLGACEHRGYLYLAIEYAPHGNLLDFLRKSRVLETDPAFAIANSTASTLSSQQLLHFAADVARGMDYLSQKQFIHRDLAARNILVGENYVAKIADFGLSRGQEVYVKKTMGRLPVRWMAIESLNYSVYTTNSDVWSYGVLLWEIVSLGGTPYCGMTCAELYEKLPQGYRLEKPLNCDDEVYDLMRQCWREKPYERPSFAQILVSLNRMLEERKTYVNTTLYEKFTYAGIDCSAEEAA
Chain of ITK (Q08881 whole entry, species assumed): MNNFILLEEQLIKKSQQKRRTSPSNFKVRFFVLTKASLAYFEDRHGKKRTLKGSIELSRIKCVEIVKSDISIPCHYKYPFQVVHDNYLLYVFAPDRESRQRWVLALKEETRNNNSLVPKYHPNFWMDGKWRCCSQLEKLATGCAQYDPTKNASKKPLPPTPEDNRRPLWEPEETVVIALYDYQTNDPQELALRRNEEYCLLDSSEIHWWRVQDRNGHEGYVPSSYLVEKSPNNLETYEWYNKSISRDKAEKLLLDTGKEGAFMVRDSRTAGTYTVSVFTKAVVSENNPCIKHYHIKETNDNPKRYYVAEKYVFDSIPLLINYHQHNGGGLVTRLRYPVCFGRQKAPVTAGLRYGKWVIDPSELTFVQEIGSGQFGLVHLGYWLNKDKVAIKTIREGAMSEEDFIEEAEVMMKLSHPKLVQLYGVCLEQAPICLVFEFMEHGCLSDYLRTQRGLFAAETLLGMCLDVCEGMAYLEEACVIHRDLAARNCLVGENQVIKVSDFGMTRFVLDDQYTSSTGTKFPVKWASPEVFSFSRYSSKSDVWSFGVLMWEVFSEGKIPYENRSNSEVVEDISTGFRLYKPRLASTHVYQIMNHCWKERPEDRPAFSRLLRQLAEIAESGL

Ki (FLT3) [µM] | Ki (ITK) [µM] | Ki (EphA) [µM] | Ki (TIE2) [µM] | Ki (JAK2) [µM] | Ki (LCK) [µM] | Ki (COT) [µM] | Ki (PDK1) [µM] | Ki (FAK) [µM] | Compound
> 1 | > 1 | > 1 | > 1 | > 1 | – | – | – | – | OC1CCN(Cc2onc(-c3ccc(F)cc3)c2-c2ccnc(NC3CCCCC3)n2)CC1 [V-05-013]
– | – | > 1 | > 1 | – | > 1 | > 1 | > 1 | > 1 | OC[C@@H]1CCCN1Cc1onc(-c2ccc(F)cc2)c1-c1ccnc(NC2CCCCC2)n1 [V-05-014]
> 1 | – | – | – | > 1 | > 1 | – | > 1 | – | Fc1ccc(-c2noc(CN3CCCCC3)c2-c2ccnc(NC3CCCCC3)n2)cc1 [V-05-015]
